The values below come from article PMC6983109, “Efficient Synthesis of Purine Nucleoside Analogs by a New Trimeric Purine Nucleoside Phosphorylase from Aneurinibacillus migulanus AM007” (Molecules, 2019).

One assay addresses T1, AmPNP (Aneurinibacillus migulanus, UniProt A0A3G5E8S8).
T1 construct: full-length ORF 813 bp, 270 residues; N-terminal 6*His tag (pET-28a(+), Nhe I/BamH I), E. coli BL21(DE3), Ni2+ purified; subunit ~29 kDa, native ~87 kDa, trimer
Put plainly: phosphorolysis, HPLC. Particulars: 10 mM sodium phosphate buffer pH 8.0 (phosphate co-substrate), 50 °C, 0.5–5 mM substrate. In kind it is biochemical. The text has this:
phosphorolysis, HPLC on AmPNP

For assay [1], the target named is purine nucleoside phosphorylase from Aneurinibacillus migulanus AM007 (Aneurinibacillus migulanus AM007). The assay is described as follows: SEC; Superdex 200 Increase 10/300 GL on an AKTA pure system, against standard proteins; 0.01 M phosphate buffer, 0.14 M NaCl, pH 8.0; AmPNP at 2 mg/mL; 0.3 mL/min; native mass about 87 kDa compared with about 29 kDa subunit on SDS-PAGE. Background: SEC sorts molecules by how far they enter the pores of the column.

Turning to `Nc1ncnc2c1ncn2[C@@H]1O[C@H](CO)[C@@H](O)[C@H]1O` [Adenosine], the Km – broadly, the substrate concentration at which the rate is half of its maximum – at AmPNP was 1450 µM.
Turning to `Nc1nc2c(ncn2[C@@H]2O[C@H](CO)[C@@H](O)[C@H]2O)c(=O)[nH]1` [Guanosine], at AmPNP, the Km was found to be 1160 µM.
Consider `OC[C@H]1O[C@@H](n2cnc3c(O)ncnc32)[C@H](O)[C@@H]1O` [Inosine], for which the Km on AmPNP amounted to 5300 µM.
As for “purine nucleoside phosphorylase from Aneurinibacillus migulanus AM007 (enzyme)”, the stoichiometry N (in general, a count of units in the complex or per binding partner) in assay [1] was determined as 3.
